Laboratory results published in PMC5218480 (PLoS ONE, 2017).

Tested on: MV-4-11 cells
Experiment: Gene expression microarray analysis (Affymetrix PrimeView) and GSEA
Format: cell-based, human
Design: RFU PODN (11730768_x_at) / Fold change /veh PODN (11730768_x_at) / RFU LINC00158 (11744669_a_at) / Fold change /veh LINC00158 (11744669_a_at) / RFU DUSP10 (11751237_a_at) / Fold change /veh DUSP10 (11751237_a_at) / RFU ID3 (11757404_x_at) / Fold change /veh ID3 (11757404_x_at) / RFU PLEKHG5 (11737974_s_at) / Fold change /veh PLEKHG5 (11737974_s_at) / RFU LRRC4B (11730491_at) / Fold change /veh LRRC4B (11730491_at) / RFU GIMAP4 (11747438_a_at) / Fold change /veh GIMAP4 (11747438_a_at) / RFU KRT8 (11758183_x_at) / Fold change /veh KRT8 (11758183_x_at) / RFU CNN1 (11734310_a_at) / Fold change /veh CNN1 (11734310_a_at) / RFU VPS37D (11726825_at) / Fold change /veh VPS37D (11726825_at) / RFU C10orf10 (11716522_x_at) / Fold change /veh C10orf10 (11716522_x_at) / RFU KIR2DL2 /// KIR2DL4 /// KIR2DL5A /// KIR2DL5B /// KIR2DS1 /// KIR2DS2 /// KIR2DS3 /// KIR2DS4 /// KIR3DL3 /// KIR3DL3 /// KIR3DS1 (11738374_at) / Fold change /veh KIR2DL2 /// KIR2DL4 /// KIR2DL5A /// KIR2DL5B /// KIR2DS1 /// KIR2DS2 /// KIR2DS3 /// KIR2DS4 /// KIR3DL3 /// KIR3DL3 /// KIR3DS1 (11738374_at) / RFU C1QL1 (11718748_at) / Fold change /veh C1QL1 (11718748_at) / RFU TMPRSS4 (11747572_a_at) / Fold change /veh TMPRSS4 (11747572_a_at) / RFU HAMP (11756126_x_at) / Fold change /veh HAMP (11756126_x_at) / RFU RNFT2 (11725882_a_at) / Fold change /veh RNFT2 (11725882_a_at) / RFU NR4A2 (11747474_a_at) / Fold change /veh NR4A2 (11747474_a_at) / RFU ABCC12 (11746883_a_at) / Fold change /veh ABCC12 (11746883_a_at) / RFU TMEM136 (11760407_x_at) / Fold change /veh TMEM136 (11760407_x_at) / RFU CLDN22 /// WWC2 (11732394_at) / Fold change /veh CLDN22 /// WWC2 (11732394_at) / RFU HLA-DPB1 (11760878_x_at) / Fold change /veh HLA-DPB1 (11760878_x_at) / RFU SPINT1 (11716480_a_at) / Fold change /veh SPINT1 (11716480_a_at) / RFU GAP43 (11754022_s_at) / Fold change /veh GAP43 (11754022_s_at) / RFU A4GNT (11735810_at) / Fold change /veh A4GNT (11735810_at) / RFU PRB3 (11715151_x_at) / Fold change /veh PRB3 (11715151_x_at) / RFU TUBB4B (11761932_at) / Fold change /veh TUBB4B (11761932_at) / RFU CAPN14 (11732068_a_at) / Fold change /veh CAPN14 (11732068_a_at) / RFU TMCC2 (11721928_a_at) / Fold change /veh TMCC2 (11721928_a_at) / RFU IRGQ (11745062_a_at) / Fold change /veh IRGQ (11745062_a_at) / RFU FAM174B (11720279_a_at) / Fold change /veh FAM174B (11720279_a_at) / RFU TMPRSS4 (11748680_a_at) / Fold change /veh TMPRSS4 (11748680_a_at) / RFU FAM212B (11763350_a_at) / Fold change /veh FAM212B (11763350_a_at) / RFU PLEKHG5 (11743358_a_at) / Fold change /veh PLEKHG5 (11743358_a_at) / RFU ZSCAN30 (11745921_a_at) / Fold change /veh ZSCAN30 (11745921_a_at) / RFU CMKLR1 (11741424_a_at) / Fold change /veh CMKLR1 (11741424_a_at) / RFU LOC101060620 /// MAPK8IP1 (11723275_at) / Fold change /veh LOC101060620 /// MAPK8IP1 (11723275_at) / RFU SPTSSB (11747773_x_at) / Fold change /veh SPTSSB (11747773_x_at) / RFU PRSS12 (11739890_at) / Fold change /veh PRSS12 (11739890_at) / RFU BIN1 (11741810_x_at) / Fold change /veh BIN1 (11741810_x_at) / RFU WNT11 (11732464_a_at) / Fold change /veh WNT11 (11732464_a_at) / RFU C10orf10 (11716521_a_at) / Fold change /veh C10orf10 (11716521_a_at) / RFU C5orf56 (11738089_at) / Fold change /veh C5orf56 (11738089_at) / RFU CYB561 (11721691_x_at) / Fold change /veh CYB561 (11721691_x_at) / RFU ANKRD19P (11752326_a_at) / Fold change /veh ANKRD19P (11752326_a_at) / RFU OR2T12 /// OR2T33 /// OR2T8 (11738714_s_at) / Fold change /veh OR2T12 /// OR2T33 /// OR2T8 (11738714_s_at) / RFU VCAN (11748164_a_at) / Fold change /veh VCAN (11748164_a_at) / RFU JSRP1 (11732532_at) / Fold change /veh JSRP1 (11732532_at) / RFU KRTAP10-11 (11738290_x_at) / Fold change /veh KRTAP10-11 (11738290_x_at) / RFU MYO3A (11730013_a_at) / Fold change /veh MYO3A (11730013_a_at) / RFU EBF3 (11725865_a_at) / Fold change /veh EBF3 (11725865_a_at) / RFU CAMK2N1 (11719241_x_at) / Fold change /veh CAMK2N1 (11719241_x_at) / RFU C5orf56 (11738088_a_at) / Fold change /veh C5orf56 (11738088_a_at) / RFU OLFML3 (11715873_a_at) / Fold change /veh OLFML3 (11715873_a_at) / RFU LOC100653217 /// NTM (11731650_a_at) / Fold change /veh LOC100653217 /// NTM (11731650_a_at) / RFU MAPK11 (11762145_a_at) / Fold change /veh MAPK11 (11762145_a_at) / RFU FIZ1 (11724087_x_at) / Fold change /veh FIZ1 (11724087_x_at) / RFU OASL (11726364_x_at) / Fold change /veh OASL (11726364_x_at) / RFU SOX15 (11748057_x_at) / Fold change /veh SOX15 (11748057_x_at) / RFU CD79A (11719716_a_at) / Fold change /veh CD79A (11719716_a_at) / RFU HIST1H1D (11736915_at) / Fold change /veh HIST1H1D (11736915_at) / RFU CASKIN2 (11723855_a_at) / Fold change /veh CASKIN2 (11723855_a_at) / RFU LOC730098 (11760151_x_at) / Fold change /veh LOC730098 (11760151_x_at) / RFU OR4N2 (11742367_at) / Fold change /veh OR4N2 (11742367_at) / RFU PRRT2 (11749266_a_at) / Fold change /veh PRRT2 (11749266_a_at) / RFU SNX32 (11753110_a_at) / Fold change /veh SNX32 (11753110_a_at) / RFU CDHR5 (11726645_a_at) / Fold change /veh CDHR5 (11726645_a_at) / RFU RCAN1 (11760418_a_at) / Fold change /veh RCAN1 (11760418_a_at) / RFU FAM167A (11723789_a_at) / Fold change /veh FAM167A (11723789_a_at) / RFU FAM26E (11764081_at) / Fold change /veh FAM26E (11764081_at) / RFU ISYNA1 (11749810_s_at) / Fold change /veh ISYNA1 (11749810_s_at) / RFU ACY1 (11761880_at) / Fold change /veh ACY1 (11761880_at) / RFU 11764098_at / Fold change /veh 11764098_at / RFU SAMD14 (11745864_x_at) / Fold change /veh SAMD14 (11745864_x_at) / RFU NPB (11741838_a_at) / Fold change /veh NPB (11741838_a_at) / RFU TMPRSS6 (11731388_a_at) / Fold change /veh TMPRSS6 (11731388_a_at) / RFU KRTAP10-2 (11738614_at) / Fold change /veh KRTAP10-2 (11738614_at) / RFU ARHGAP8 /// PRR5-ARHGAP8 (11727945_x_at) / Fold change /veh ARHGAP8 /// PRR5-ARHGAP8 (11727945_x_at) / RFU KRTAP5-7 /// NADSYN1 (11734609_at) / Fold change /veh KRTAP5-7 /// NADSYN1 (11734609_at) / RFU RASL12 (11751679_a_at) / Fold change /veh RASL12 (11751679_a_at) / RFU CDKN2B (11736163_a_at) / Fold change /veh CDKN2B (11736163_a_at) / RFU PRF1 (11729649_at) / Fold change /veh PRF1 (11729649_at) / RFU, ZNF638 /// ZNF638-IT1 / Fold change vs veh, ZNF638 /// ZNF638-IT1 / RFU, PANK3 / Fold change vs veh, PANK3 / RFU, SH3YL1 / Fold change vs veh, SH3YL1 / RFU, ZEB2 / Fold change vs veh, ZEB2 / RFU, NRIP1 / Fold change vs veh, NRIP1 / RFU, PTTG1IP / Fold change vs veh, PTTG1IP / RFU, CAPN2 / Fold change vs veh, CAPN2 / RFU, MED14 / Fold change vs veh, MED14 / RFU, SNORA58 / Fold change vs veh, SNORA58 / RFU, C1orf63 / Fold change vs veh, C1orf63 / RFU, LRRFIP1 / Fold change vs veh, LRRFIP1 / RFU, NDUFAF7 / Fold change vs veh, NDUFAF7 / RFU, SLC12A2 / Fold change vs veh, SLC12A2 / RFU, IBTK / Fold change vs veh, IBTK / RFU, ESF1 / Fold change vs veh, ESF1 / Fold change vs veh, TMEM50B / RFU, TAOK1 / Fold change vs veh, TAOK1 / RFU, ACBD3 / Fold change vs veh, ACBD3 / RFU, TMA16 / Fold change vs veh, TMA16 / RFU, RWDD3 / Fold change vs veh, RWDD3 / RFU, BCAT1 / Fold change vs veh, BCAT1 / RFU, EDEM3 / Fold change vs veh, EDEM3 / RFU, TMEM33 / Fold change vs veh, TMEM33 / RFU, WDR75 / Fold change vs veh, WDR75 / RFU, AHCTF1 / Fold change vs veh, AHCTF1 / RFU, TFRC / Fold change vs veh, TFRC / RFU, ZDHHC17 / Fold change vs veh, ZDHHC17 / RFU, NOM1 / Fold change vs veh, NOM1 / RFU, ARL8B / Fold change vs veh, ARL8B / RFU, ZBTB11 / Fold change vs veh, ZBTB11 / RFU, TAMM41 / Fold change vs veh, TAMM41 / RFU, KIAA1704 /// LOC100996395 / Fold change vs veh, KIAA1704 /// LOC100996395 / RFU, ING1 / Fold change vs veh, ING1 / RFU, TRMT61B / Fold change vs veh, TRMT61B / RFU, FUBP3 / Fold change vs veh, FUBP3 / RFU, TP53 / Fold change vs veh, TP53 / RFU, TNKS2 / Fold change vs veh, TNKS2 / RFU, ZFP14 / Fold change vs veh, ZFP14 / RFU, ACTR2 / Fold change vs veh, ACTR2 / RFU, PPP3R1 / Fold change vs veh, PPP3R1 / RFU, PIK3R1 / Fold change vs veh, PIK3R1 / RFU, HNRNPA1 / Fold change vs veh, HNRNPA1 / RFU, RNF170 / Fold change vs veh, RNF170 / RFU, ZNF28 / Fold change vs veh, ZNF28 / RFU, RNGTT / Fold change vs veh, RNGTT / RFU, OGT / Fold change vs veh, OGT / RFU, BRD1 / Fold change vs veh, BRD1 / RFU, MARS / Fold change vs veh, MARS / RFU, ZNF655 / Fold change vs veh, ZNF655 / RFU, FAHD1 / Fold change vs veh, FAHD1 / RFU, BDP1 / Fold change vs veh, BDP1 / RFU, LRRCC1 / Fold change vs veh, LRRCC1 / RFU, ARID1A / Fold change vs veh, ARID1A / RFU, ZNF146 / Fold change vs veh, ZNF146 / RFU, ZNF330 / Fold change vs veh, ZNF330 / RFU, GPN3 / Fold change vs veh, GPN3 / RFU, C9orf123 / Fold change vs veh, C9orf123 / RFU, N4BP2L2 / Fold change vs veh, N4BP2L2 / RFU, ARFIP1 / Fold change vs veh, ARFIP1 / RFU, FAM179B / Fold change vs veh, FAM179B / RFU, BCL10 / Fold change vs veh, BCL10 / RFU, UHRF1BP1L / Fold change vs veh, UHRF1BP1L / RFU, BET1 / Fold change vs veh, BET1 / RFU, CNOT2 / Fold change vs veh, CNOT2 / RFU, ZNF268 / Fold change vs veh, ZNF268 / Fold change vs veh, ZNF507 / RFU, DGCR2 / Fold change vs veh, DGCR2 / RFU, WDSUB1 / Fold change vs veh, WDSUB1 / Fold change vs veh, HSP90B1 /// MIR3652 / RFU, ADSS / Fold change vs veh, ADSS / RFU, GK / Fold change vs veh, GK / RFU, ZNF148 / Fold change vs veh, ZNF148 / RFU, TAF9 / Fold change vs veh, TAF9 / RFU, SLC1A5 / Fold change vs veh, SLC1A5 / RFU, SLMO2 / Fold change vs veh, SLMO2 / RFU, ABCC4 / Fold change vs veh, ABCC4 / RFU, LOC101060439 /// RAP1B / Fold change vs veh, LOC101060439 /// RAP1B / RFU, RFX7 / Fold change vs veh, RFX7 / RFU, GTPBP10 / Fold change vs veh, GTPBP10 / RFU, CNEP1R1 / Fold change vs veh, CNEP1R1 / RFU, BIVM-ERCC5 /// ERCC5 / Fold change vs veh, BIVM-ERCC5 /// ERCC5 / RFU, ILF3 / Fold change vs veh, ILF3 / RFU 11762660_at / Fold change /veh 11762660_at / RFU VCAN (11757783_s_at) / Fold change /veh VCAN (11757783_s_at) / RFU DDX43 (11728927_at) / Fold change /veh DDX43 (11728927_at) / RFU KRT8 (11758188_x_at) / Fold change /veh KRT8 (11758188_x_at) / RFU NKD1 (11759106_at) / Fold change /veh NKD1 (11759106_at) / RFU SRD5A1 (11742802_a_at) / Fold change /veh SRD5A1 (11742802_a_at) / RFU TPSAB1 /// TPSB2 (11721975_s_at) / Fold change /veh TPSAB1 /// TPSB2 (11721975_s_at) / RFU GSTM3 (11746129_a_at) / Fold change /veh GSTM3 (11746129_a_at) / RFU IL23R (11737362_x_at) / Fold change /veh IL23R (11737362_x_at) / RFU TMEM51 (11727254_a_at) / Fold change /veh TMEM51 (11727254_a_at) / RFU PIWIL2 (11732686_x_at) / Fold change /veh PIWIL2 (11732686_x_at) / RFU ORM1 (11744905_x_at) / Fold change /veh ORM1 (11744905_x_at) / RFU CCDC152 (11743942_at) / Fold change /veh CCDC152 (11743942_at) / RFU ECM1 (11717891_a_at) / Fold change /veh ECM1 (11717891_a_at) / RFU IL23R (11748794_a_at) / Fold change /veh IL23R (11748794_a_at) / RFU TNFAIP8L3 (11732012_x_at) / Fold change /veh TNFAIP8L3 (11732012_x_at) / RFU MBOAT4 (11741988_at) / Fold change /veh MBOAT4 (11741988_at) / RFU 11764193_at / Fold change /veh 11764193_at / RFU TMEM53 (11763286_at) / Fold change /veh TMEM53 (11763286_at) / RFU MAGEB2 (11727129_at) / Fold change /veh MAGEB2 (11727129_at) / RFU TMEM200A (11744735_a_at) / Fold change /veh TMEM200A (11744735_a_at) / RFU CCDC152 (11751479_a_at) / Fold change /veh CCDC152 (11751479_a_at) / RFU FAM211A (11726209_a_at) / Fold change /veh FAM211A (11726209_a_at) / RFU RGS16 (11746705_a_at) / Fold change /veh RGS16 (11746705_a_at) / RFU VCAN (11755009_s_at) / Fold change /veh VCAN (11755009_s_at) / RFU RHOB (11743442_s_at) / Fold change /veh RHOB (11743442_s_at) / RFU RGS16 (11720943_a_at) / Fold change /veh RGS16 (11720943_a_at) / RFU RGS16 (11720944_at) / Fold change /veh RGS16 (11720944_at) / RFU, VPS4B / Fold change vs veh, VPS4B / RFU, CREB1 / Fold change vs veh, CREB1 / RFU, DNAJC13 / Fold change vs veh, DNAJC13 / RFU, GNAQ / Fold change vs veh, GNAQ / RFU, CDK5R1 / Fold change vs veh, CDK5R1 / RFU, ZRANB3 / Fold change vs veh, ZRANB3 / RFU, CUL4A / Fold change vs veh, CUL4A / RFU, CCNY / Fold change vs veh, CCNY / RFU, UFL1 / Fold change vs veh, UFL1 / RFU, COG3 / Fold change vs veh, COG3 / RFU, DIAPH2 / Fold change vs veh, DIAPH2 / RFU, SKA2 / Fold change vs veh, SKA2 / RFU, AFF3 / Fold change vs veh, AFF3 / RFU, LMF1 / Fold change vs veh, LMF1 / RFU, IPO11 / Fold change vs veh, IPO11 / RFU, DFFB / Fold change vs veh, DFFB / RFU, FOXP1 / Fold change vs veh, FOXP1 / RFU, CARD8 / Fold change vs veh, CARD8 / RFU, STRN3 / Fold change vs veh, STRN3 / RFU, ADK / Fold change vs veh, ADK / RFU, RASSF2 / Fold change vs veh, RASSF2 / RFU, WIPF1 / Fold change vs veh, WIPF1 / RFU, LARP1B / Fold change vs veh, LARP1B / RFU, RASA1 / Fold change vs veh, RASA1 / RFU, RB1 / Fold change vs veh, RB1 / RFU, PPFIA1 / Fold change vs veh, PPFIA1 / RFU, MAT2A / Fold change vs veh, MAT2A / RFU, CCT5 / Fold change vs veh, CCT5 / RFU, WDR92 / Fold change vs veh, WDR92 / RFU, CUX1 / Fold change vs veh, CUX1 / RFU, TTC7A / Fold change vs veh, TTC7A / RFU, TMEM135 / Fold change vs veh, TMEM135 / RFU, DEPTOR / Fold change vs veh, DEPTOR / RFU, CPM / Fold change vs veh, CPM / RFU, DNAJB6 / Fold change vs veh, DNAJB6 / RFU, CACNA2D3 / Fold change vs veh, CACNA2D3 / RFU, DTX4 / Fold change vs veh, DTX4 / RFU, TFCP2 / Fold change vs veh, TFCP2 / RFU, GMCL1 /// GMCL1P1 / Fold change vs veh, GMCL1 /// GMCL1P1 / RFU, AEBP2 / Fold change vs veh, AEBP2 / RFU, SNHG1 /// SNORD22 /// SNORD25 /// SNORD26 /// SNORD27 /// SNORD28 /// SNORD29 /// SNORD31 / Fold change vs veh, SNHG1 /// SNORD22 /// SNORD25 /// SNORD26 /// SNORD27 /// SNORD28 /// SNORD29 /// SNORD31 / Fold change (Aza/veh), C12orf56 (ProbeSet 11735607_a_at) / Fold change (ACY-1035/veh), C12orf56 (ProbeSet 11735607_a_at) / Fold change (Aza/veh), FGFR1OP (ProbeSet 11751329_s_at) / Fold change (ACY-1035/veh), FGFR1OP (ProbeSet 11751329_s_at) / Fold change (Aza/veh), VPS36 (ProbeSet 11739960_a_at) / Fold change (ACY-1035/veh), VPS36 (ProbeSet 11739960_a_at) / RFU SYPL1 (11715823_x_at) / Fold change /veh SYPL1 (11715823_x_at) / RFU IGFBP7 (11715501_s_at) / Fold change /veh IGFBP7 (11715501_s_at) / RFU REEP3 (11722064_at) / Fold change /veh REEP3 (11722064_at) / RFU IGLL1 (11728026_x_at) / Fold change /veh IGLL1 (11728026_x_at): dose or concentration left out as unconfirmed
Conditions: ProbeSet 11716999_a_at; LIST D

Compound: Nc1ncn([C@@H]2O[C@H](CO)[C@@H](O)[C@H]2O)c(=O)n1 [azacitidine]
- Fold change vs veh, RASA1: 0.72
